Experimental findings from publication PMC9668969 (Nature Communications, 2022) are described below.

The assay deals with WT ELIC. Kind of assay: Fluorescence stopped-flow liposomal Tl+ flux assay, symmetric liposomes. It counts as biochemical, Erwinia chrysanthemi. The method, then:
The fluorescence sequential-mixing stopped-flow liposomal flux measurements were carried using an SX20 stopped-flow spectrofluorometer (Applied Photophysics) and Pro-Data SX software[13],[30]. 7.5 mg of the respective lipid mixture (POPC, 1:1 POPC: POPE, 1:1 POPC:POPG, 3:1 POPC:POPE, 3:1 POPC:POPG, 2:1:1 POPC:POPE:POPG) was dried in a glass vial to a thin film under a constant stream of N2. The lipids were then further dried under vacuum in a desiccator overnight. The following day the lipids were hydrated in 500 µl of reconstitution buffer (100 mM NaNO3, 10 mM HEPES, pH 7) (Buffer R), 250 µl of 75 mM 8-Aminonaphthalene-1,3,6-Trisulfonic Acid (ANTS, ThermoFisher Scientific) in buffer R, and doped with ~18 mg of CHAPS (Anatrace). The mixture was vortexed and then sonicated with heat until completely solubilized. Following the sonication, the solution was brought to RT then 3.5 µl of 6.7 mg/ml ELIC in Buffer A with 0.02% DDM was added (3 µg per mg of lipid). This combined solution was incubated at RT for 30 min, followed by the addition of 1 ml of 1:1 v/v SM-2 BioBeads in Buffer R and an additional 250 µl of 75 mM ANTS in Buffer R. This mixture was incubated at RT for 2.5 hr with gentle mixing. The liposome suspension was then extruded with an Avanti mini-extruder and 0.1 µm membrane (30×). The extruded liposomes were stored at 13 °C overnight with gentle rotation. The next day, the liposomes were diluted to 2.5 mL using assay buffer (140 mM NaNO3, 10 mM HEPES, pH 7) (Stopped-flow Buffer A), loaded into a PD-10 desalting column (Cytiva), eluted with 3 mL of Stopped-flow Buffer A and subsequently diluted 5-fold with Stopped-flow Buffer A.
Using propylamine as the agonist, the assay and analysis was carried out as previously described[13],[30]. ELIC-containing liposomes were first mixed 1:1 with Buffer A containing 2× the concentration of propylamine. After a variable delay of 10 ms to 25 s, the sample was then mixed 1:1 with a quenching buffer (90 mM NaNO3, 50 mM TlNO3, 10 mM HEPES, pH 7), and ANTS fluorescence (ex. 360 nm, fluorescence above 420 nm) was recorded for 1 s. For each delay time, 5 repeat measurements were obtained. The data were collected using Applied Photophysics Pro-Data SX software. The fluorescence quenching traces were fit to a stretched exponential (Eq. 2a) and the rate of Tl^+ influx was determined at 2 ms (Eq. 2b).2a Ft=F∞+F0−F∞⋅e^−t/τ^β 2b kt=β/τ⋅2ms/τ^(β−1) where Ft, F∞, F0 are the fluorescence at time t, final fluorescence and initial fluorescence. τ is the time constant, β the stretched exponential factor, and kt the calculated rate of Tl^+ influx at 2 ms. The time course of desensitization was also fit to a double exponential and a weighted time constant was calculated as was done for the patch-clamp data using Origin 2019b. All replicates were taken from independent samples.

`CCCCCCCC/C=C\CCCCCCCC(=O)OC(COC(=O)CCCCCCCCCCCCCCC)COP(=O)(O)OCC(O)CO` (stereo not drawn) [POPG, 1-palmitoyl-2-oleoyl-phosphatidylglycerol]: the “time constant of desensitization” value by setting is: (25% POPG in symmetric liposomes) ~ 6 s; (50% POPG in symmetric liposomes) ~ 12 s. For the same molecule, the effect on desensitization entry (25–50 mol% in binary mixtures with POPC, 10 mM propylamine) is “slowed desensitization”.
